Results published in US20120115845A1, “THERAPEUTIC AGENTS” (priority 2007, published 2012).

Target: T1, human GHS receptor (Homo sapiens, UniProt Q92847)
Assay: Ghrelin IP1 agonist assay (IP1 HTRF)
Assay type: cell-based
Design: expressed in transfected cells; host or cells: HEK293s
Conditions: 2 h; agonist effect as % maximal effect of GHRP-6 (5 μM); read-out: h IP1 ag %
Procedure: In HEK293s cells stably expressing human GHS receptor (In-house), agonist activity was assessed by measuring intracellular myo-Inositol 1 phosphate (IP1) using the IP1 HTRF assay kit (Cisbio International).
Cells were harvested using accutase (Sigma), spun down at 1000 rpm for 5 minutes and resuspended in stimulation buffer (as above) containing 0.02% fatty acid free BSA at a density of 1.43E6cells/ml.
Agonist effect of the compound was expressed as % maximal effect of GHRP-6 (5 μM: Bachem). Sigmoidal curves were fitted by Origin 7.5 Client and EC50 values determined.

T1 sequence (Q92847 whole entry): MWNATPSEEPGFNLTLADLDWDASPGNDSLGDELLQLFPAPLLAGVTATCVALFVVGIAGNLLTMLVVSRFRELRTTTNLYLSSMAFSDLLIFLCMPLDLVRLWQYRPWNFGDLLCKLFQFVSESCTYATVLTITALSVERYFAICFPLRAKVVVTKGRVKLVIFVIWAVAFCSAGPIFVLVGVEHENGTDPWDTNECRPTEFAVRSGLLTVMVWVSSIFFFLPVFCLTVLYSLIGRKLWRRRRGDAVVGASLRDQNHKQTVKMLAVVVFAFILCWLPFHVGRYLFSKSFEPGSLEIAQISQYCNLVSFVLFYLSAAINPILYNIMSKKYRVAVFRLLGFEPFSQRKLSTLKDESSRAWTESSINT

Emax [%] | SMILES
29.5 | NC(=O)COCCS(=O)(=O)c1ccc2nc(NC(=O)NC(=O)c3ccccc3Cl)sc2c1 [Example 120, N-[[6-[2-(Carbamoylmethoxy)ethylsulfonyl]benzothiazol-2-yl]carbamoyl]-2-chloro-benzamide]
38.4 | CS(=O)(=O)c1ccc2nc(NC(=O)NC(=O)c3c(F)cccc3F)sc2c1 [Example 112, 2,6-Difluoro-N-[(6-methylsulfonylbenzothiazol-2-yl)carbamoyl]benzamide]
38.4 | CS(=O)(=O)c1ccc2nc(NC(=O)NC(=O)c3ccccc3-c3ccc(F)cc3)sc2c1 [Example 126, 2-(4-Fluorophenyl)-N-[(6-methylsulfonylbenzothiazol-2-yl)carbamoyl]benzamide]
31.8 | CS(=O)(=O)c1ccc2nc(NC(=O)NC(=O)c3ccccc3-c3ccccc3F)sc2c1 [Example 125, 2-(2-Fluorophenyl)-N-[(6-methylsulfonylbenzothiazol-2-yl)carbamoyl]benzamide]

Same assay, conditions: HEK293s cells stably expressing human GHS receptor; 2 hours at 37° C.; read-out: h IP1 ag EC50

EC50 [nM] | SMILES
211 | NC(=O)COCCS(=O)(=O)c1ccc2nc(NC(=O)NC(=O)c3ccccc3Cl)sc2c1 [Example 120, N-[[6-[2-(Carbamoylmethoxy)ethylsulfonyl]benzothiazol-2-yl]carbamoyl]-2-chloro-benzamide]
142 | CS(=O)(=O)c1ccc2nc(NC(=O)NC(=O)c3c(F)cccc3F)sc2c1 [Example 112, 2,6-Difluoro-N-[(6-methylsulfonylbenzothiazol-2-yl)carbamoyl]benzamide]
1030 | CS(=O)(=O)c1ccc2nc(NC(=O)NC(=O)c3ccccc3-c3ccc(F)cc3)sc2c1 [Example 126, 2-(4-Fluorophenyl)-N-[(6-methylsulfonylbenzothiazol-2-yl)carbamoyl]benzamide]
252 | CS(=O)(=O)c1ccc2nc(NC(=O)NC(=O)c3ccccc3-c3ccccc3F)sc2c1 [Example 125, 2-(2-Fluorophenyl)-N-[(6-methylsulfonylbenzothiazol-2-yl)carbamoyl]benzamide]

Same assay, conditions: agonist effect as % maximal effect of GHRP-6 (5 μM)

h IP1 ag % [%] | SMILES
18.23 | CCS(=O)(=O)c1ccccc1C(=O)NC(=O)Nc1nc2ccc(S(C)(=O)=O)cc2s1 [Example 135, 2-Ethyl sulfonyl-N-[(6-methylsulfonylbenzothiazol-2-yl)carbamoyl]benzamide]

Target: T1, human GHS receptor
Assay: h bind IC50 (binding assay, Table 1)
Conditions: not given

SMILES | IC50 in the binding assay
COc1cc(Cl)c(C(=O)NC(=O)Nc2nc3ccc(S(C)(=O)=O)cc3s2)cc1OC [2-chloro-4,5-dimethoxy-N-[(6-methylsulfonyl-1,3-benzothiazol-2-yl)carbamoyl]benzamide] | did not have IC50s in the range of about 0.001 μM to about 10 μM

Same assay, conditions: human receptor; Table 1

SMILES | IC50 [nM]
CN1CCN(CCS(=O)(=O)c2ccc3nc(NC(=O)NC(=O)c4ccccc4Cl)sc3c2)CC1 [Example 23, 2-Chloro-N-[[6-[2-(4-methylpiperazin-1-yl)ethylsulfonyl]benzothiazol-2-yl]carbamoyl]benzamide] | 82.7
CCN1CCN(CCS(=O)(=O)c2ccc3nc(NC(=O)NC(=O)c4ccccc4Cl)sc3c2)CC1 [Example 29, 2-Chloro-N-[[6-[2-(4-ethylpiperazin-1-yl)ethylsulfonyl]benzothiazol-2-yl]carbamoyl]benzamide] | 60.9
CCN(CCOC)CCS(=O)(=O)c1ccc2nc(NC(=O)NC(=O)c3ccccc3Cl)sc2c1 [Example 15, 2-Chloro-N-[[6-[2-(ethyl-(2-methoxyethyl)amino)ethylsulfonyl]benzothiazol-2-yl]carbamoyl]benzamide] | 1080
CN(CCO)CCS(=O)(=O)c1ccc2nc(NC(=O)NC(=O)c3ccccc3Cl)sc2c1 [Example 11, 2-Chloro-N-[[6-[2-(2-hydroxyethyl-methyl-amino)ethylsulfonyl]benzothiazol-2-yl]carbamoyl]benzamide] | 347
COCCS(=O)(=O)c1ccc2nc(NC(=O)NC(=O)c3ccccc3Cl)sc2c1 [Example 40, 2-Chloro-N-[[6-(2-methoxyethylsulfonyl)benzothiazol-2-yl]carbamoyl]benzamide] | 1820
O=C(NC(=O)c1ccccc1Cl)Nc1nc2ccc(S(=O)(=O)CCN3CCCC3)cc2s1 [Example 6, 2-Chloro-N-[[6-(2-pyrrolidin-1-ylethylsulfonyl)benzothiazol-2-yl]carbamoyl]benzamide] | 44.4
COCCNCCCS(=O)(=O)c1ccc2nc(NC(=O)NC(=O)c3cc(-n4cccc4)ccc3Cl)sc2c1 [Example 76, 2-Chloro-N-[[6-[3-(2-methoxyethylamino)propylsulfonyl]benzothiazol-2-yl]carbamoyl]-5-pyrrol-1-yl-benzamide] | 11.4
O=C(NC(=O)c1ccccc1Cl)Nc1nc2ccc(S(=O)(=O)CCNCCF)cc2s1 [Example 31, 2-Chloro-N-[[6-[2-(2-fluoroethylamino)ethylsulfonyl]benzothiazol-2-yl]carbamoyl]benzamide] | 54.6
CCC(C)NCCS(=O)(=O)c1ccc2nc(NC(=O)NC(=O)c3ccccc3Cl)sc2c1 (centres unmarked) [Example 12, N-[[6-[2-(Butan-2-ylamino)ethylsulfonyl]benzothiazol-2-yl]carbamoyl]-2-chloro-benzamide] | 179
CC1CN(CCS(=O)(=O)c2ccc3nc(NC(=O)NC(=O)c4ccccc4Cl)sc3c2)CC(C)O1 (centres unmarked) [Example 19, 2-Chloro-N-[[6-[2-(2,6-dimethylmorpholin-4-yl)ethylsulfonyl]benzothiazol-2-yl]carbamoyl]benzamide] | 1050
CN(C)CCS(=O)(=O)c1ccc2nc(NC(=O)NC(=O)c3ccccc3Cl)sc2c1 [Example 3, 2-Chloro-N-[[6-(2-dimethylaminoethylsulfonyl)benzothiazol-2-yl]carbamoyl]benzamide] | 1120
COCCN(C)CCS(=O)(=O)c1ccc2nc(NC(=O)NC(=O)c3ccccc3Cl)sc2c1 [Example 9, 2-Chloro-N-[[6-[2-(2-methoxyethyl-methyl-amino)ethylsulfonyl]benzothiazol-2-yl]carbamoyl]benzamide] | 247
CC(C)NCCS(=O)(=O)c1ccc2nc(NC(=O)NC(=O)c3cc(-n4cccc4)ccc3Cl)sc2c1 [Example 82, 2-Chloro-N-[[6-[2-(propan-2-ylamino)ethylsulfonyl]benzothiazol-2-yl]carbamoyl]-5-pyrrol-1-yl-benzamide] | 1.6
CC1(NCCS(=O)(=O)c2ccc3nc(NC(=O)NC(=O)c4ccccc4Cl)sc3c2)CC1 [Example 39, 2-Chloro-N-[[6-[2-[(1-methylcyclopropyl)amino]ethylsulfonyl]benzothiazol-2-yl]carbamoyl]benzamide] | 179

Second part, the molecule after the results:

IC50 [nM] | SMILES
484 | O=C(NC(=O)c1ccccc1Cl)Nc1nc2ccc(S(=O)(=O)C3CCCN(CC4CC4)C3)cc2s1 (centres unmarked) [Example 143, 2-Chloro-N-[[6-[[1-(cyclopropylmethyl)-3-piperidyl]sulfonyl]benzothiazol-2-yl]carbamoyl]benzamide]
104 | O=C(NC(=O)c1ccccc1Cl)Nc1nc2ccc(S(=O)(=O)CCCN3CCC(F)(F)CC3)cc2s1 [Example 158, 2-Chloro-N-[[6-[3-(4,4-difluoro-1-piperidyl)propylsulfonyl]benzothiazol-2-yl]carbamoyl]benzamide]
117 | O=C(NC(=O)c1ccccc1Cl)Nc1nc2ccc(S(=O)(=O)CCCN3CCC(F)(F)C3)cc2s1 [Example 154, 2-Chloro-N-[[6-[3-(3,3-difluoropyrrolidin-1-yl)propylsulfonyl]benzothiazol-2-yl]carbamoyl]benzamide]
139 | CC(C)N1CCC(S(=O)(=O)c2ccc3nc(NC(=O)NC(=O)c4ccccc4Cl)sc3c2)CC1 [Example 174, 2-Chloro-N-[[6-[(1-propan-2-yl-4-piperidyl)sulfonyl]benzothiazol-2-yl]carbamoyl]benzamide]
78.8 | O=C(NC(=O)c1ccccc1Cl)Nc1nc2ccc(S(=O)(=O)CCCN3CCC3)cc2s1 [Example 147, N-[[6-[3-(Azetidin-1-yl)propylsulfonyl]benzothiazol-2-yl]carbamoyl]-2-chloro-benzamide]
52.2 | O=C(NC(=O)c1ccccc1Cl)Nc1nc2ccc(S(=O)(=O)CCCN3CCCC3)cc2s1 [Example 149, 2-Chloro-N-[[6-(3-pyrrolidin-1-ylpropylsulfonyl)benzothiazol-2-yl]carbamoyl]benzamide]
7.1 | CC(C)NCCS(=O)(=O)c1ccc2nc(NC(=O)NC(=O)c3cc(-n4cccc4)ccc3I)sc2c1 [Example 84, 2-Iodo-N-(6-(2-(isopropylamino)ethylsulfonyl)benzothiazol-2-ylcarbamoyl)-5-(1H-pyrrol-1-yl)benzamide]
33.7 | CN1CCC(S(=O)(=O)c2ccc3nc(NC(=O)NC(=O)c4ccccc4Cl)sc3c2)CC1 [Example 184, 2-Chloro-N-[[6-[(1-methyl-4-piperidyl)sulfonyl]benzothiazol-2-yl]carbamoyl]benzamide]
613 | CCN1CCC(S(=O)(=O)c2ccc3nc(NC(=O)NC(=O)c4ccccc4Cl)sc3c2)C1 (centres unmarked) [Example 163, 2-Chloro-N-[[6-(1-ethylpyrrolidin-3-yl)sulfonylbenzothiazol-2-yl]carbamoyl]benzamide]
109 | CN1CCC(S(=O)(=O)c2ccc3nc(NC(=O)NC(=O)c4ccccc4Cl)sc3c2)C1 (centres unmarked) [Example 167, 2-Chloro-N-[[6-(1-methylpyrroldin-3-yl)sulfonylbenzothazol-2-yl]carbamoyl]benzamide]
762 | CN(C)CC1CCN(c2ccc(Cl)c(C(=O)NC(=O)Nc3nc4ccc(S(C)(=O)=O)cc4s3)c2)C1 (centres unmarked) [Example 270, 2-Chloro-5-[3-(dimethylaminomethyl)pyrrolidin-1-yl]-N-[(6-methylsulfonyl-1,3-benzothiazol-2-yl)carbamoyl]benzamide]
64 | O=C(NC(=O)c1ccccc1Cl)Nc1nc2ccc(S(=O)(=O)C[C@H]3CCCN3CC3CC3)cc2s1 [Example 156, 2-Chloro-N-[[6-[[(2R)-1-(cyclopropylmethyl)pyrrolidin-2-yl]methylsulfonyl]benzothiazol-2-yl]carbamoyl]benzamide]
13.2 | O=C(NC(=O)c1ccccc1Cl)Nc1nc2ccc(S(=O)(=O)C3CCNCC3)cc2s1 [Example 176, 2-Chloro-N-[[6-(4-piperidylsulfonyl)benzothiazol-2-yl]carbamoyl]benzamide]
1.12 | COc1cc(Cl)c(C(=O)NC(=O)Nc2nc3ccc(S(=O)(=O)C4CCNCC4)cc3s2)cc1-n1cccn1 [Example 263, 2-chloro-4-methoxy-N-(6-(piperidin-4-ylsulfonyl)benzo [d]thiazol-2-ylcarbamoyl) 5-(1H-pyrazol-1-yl)benzamide]
